One assay concerns LN443. The conditions noted are these: GBM cell line LN443; adapted from reference [13]; cited from earlier work.
In another assay the test system is U118. Conditions: GBM cell line U118; adapted from reference [13]; cited from earlier work.
Assay [1] deals with A172. Conditions: GBM cell line A172; adapted from reference [13]; cited from earlier work.
In assay [2] the test system is U87. The conditions noted are these: GBM cell line U87; adapted from reference [13]; cited from earlier work.
For assay [3], the system named is A172. The experiment in a line: Cell proliferation assay (CCK8), fixed concentration, reference GBM cell line A172. It counts as cell-based, human. Conditions: fixed test concentration per compound, Table 1 log[M]: Trequinsin −4.6, Fucoxanthin −4.8, PF04449613 −4, PF02545920 −4.6, TIC10 −5, PF04691502 −6.6, GSK1059615 −5.5, LY294002 −5, Axitinib −5, Temozolomide −5. How it is done: (§1) A wide range of approved and exploratory drugs are profiled for their ability to inhibit GBM cell proliferation. Their EC50 values against each separate cell line in the set are determined. […] Screening is performed in 96-well or 384-well or 1536-well formats.
(§2) Data was obtained from testing these compounds at fixed concentrations against normal control cells (HEK293S) alongside reference GBM cells (U87 and A172), to obtain a dataset (Table 1) within which to compare the pharmacological and pharmaceutical properties of compounds across a chosen chemotyping panel.
(§3) Data Obtained from Screening Compounds within a Chemotyping Panel Against a Control Cell Line (HEK293S) and Two Reference GBM Cell Lines (U87 and A172)

For assay [4], the system named is U87. The experiment in a line: Cell proliferation assay (CCK8), fixed concentration, reference GBM cell line U87. It counts as cell-based, human. Conditions: fixed test concentration per compound, Table 1 log[M]: Trequinsin −4.6, Fucoxanthin −4.8, PF04449613 −4, PF02545920 −4.6, TIC10 −5, PF04691502 −6.6, GSK1059615 −5.5, LY294002 −5, Axitinib −5, Temozolomide −5. How it is done: as §1, §2, §3

The test system of another assay is HEK293S. As to the kind of experiment: Cell proliferation assay (CCK8), fixed concentration, control cell line. Conditions: fixed test concentration per compound, Table 1 log[M]: Trequinsin −4.6, Fucoxanthin −4.8, PF04449613 −4, PF02545920 −4.6, TIC10 −5, PF04691502 −6.6, GSK1059615 −5.5, LY294002 −5, Axitinib −5, Temozolomide −5. It counts as cell-based. How it is done:
as §1, §2, §3

Where a name gives a salt, the structure may show the parent alone.

In the case of `CC[C@]1(O)C[C@@H]2CN(CCc3c([nH]c4ccccc34)[C@@](C(=O)OC)(c3cc4c(cc3OC)N(C)[C@H]3[C@@](O)(C(N)=O)[C@H](O)[C@]5(CC)C=CCN6CC[C@]43[C@@H]65)C2)C1` [Vindesine sulfate], the concentration giving a half-maximal response (EC50) in the assay with LN443 was 495 nM; in the assay with U118 it was 670 nM; in the assay on A172 [1], 23.2 nM; in the assay with U87 [2], 414 nM.
With `CC[C@@]1(O)C(=O)OCc2c1cc1n(c2=O)Cc2cc3c(CN(C)C)c(O)ccc3nc2-1` [Topetecan], the EC50 is 136 nM in the assay with LN443, 184 nM in the assay with U118, 649 nM with A172 [1] and 167 nM with U87 [2].
For the compound `COC(=O)C[C@](O)(CCCC(C)(C)O)C(=O)O[C@@H]1C(OC)=C[C@]23CCCN2CCc2cc4c(cc2[C@H]13)OCO4` [Homoharringtonin], the figures for the EC50 in the assay on LN443, in the assay with U118 and in the assay on U87 [2] were 28.9 nM, 1140 nM and 22 nM, respectively.
For `CC(C)[C@]12O[C@H]1[C@@H]1O[C@]13[C@]1(O[C@H]1C[C@H]1C4=C(CC[C@@]13C)C(=O)OC4)[C@@H]2O` [Triptolide], the concentration for a half-maximal effect (EC50) with LN443 is 30.8 nM; in the assay with U118, 10.1 nM; in the assay on A172 [1], 8.33 nM; in the assay on U87 [2] it was 6.53 nM.
Turning to `CCc1c2c(nc3ccc(OC(=O)N4CCC(N5CCCCC5)CC4)cc13)-c1cc3c(c(=O)n1C2)COC(=O)[C@]3(O)CC` [Irinitecan], the EC50 was 4010 nM with LN443, 4600 nM in the assay with U118, 7970 nM in the assay with A172 [1] and 8030 nM in the assay on U87 [2].
`O=C(O)C[C@H](O)C[C@H](O)/C=C/c1c(C2CC2)nc2ccccc2c1-c1ccc(F)cc1` [Pitavastatin]: the half-maximal effective concentration (EC50) with LN443 is 83 nM; in the assay on U118, 1920 nM; with A172 [1], 274 nM; in the assay with U87 [2], 3520 nM.
With `Cn1cc(-c2ccncc2)c(-c2ccc(OCc3ccc4ccccc4n3)cc2)n1` [PF02545920], in the assay with A172 [3], the “% Inhibiton A172” value came to 80% and the “% Proliferation A172” value is 20%. In the assay on U87 [4], the “% Inhibiton U87” value is on record as 30% and the “% Proliferation U87” value came out at 70%. Also, in the assay with HEK293S, the “% Inhibiton HEK293” value is 84% and the “% Proliferation HEK293” value came to 16%.
In the case of `Cn1nnc2c(C(N)=O)ncn2c1=O` [Temozolomide], in the assay on A172 [3], the “% Inhibiton A172” value was 13% and the “% Proliferation A172” value is on record as 87%. In addition, in the assay on U87 [4], the “% Inhibiton U87” value came out at 5% and the “% Proliferation U87” value worked out at 95%. In the assay with HEK293S, the “% Inhibiton HEK293” value worked out at 0% and the “% Proliferation HEK293” value was 100%.
In the case of `Cc1ccccc1CN1C(=O)C2=C(CCN(Cc3ccccc3)C2)N2CCN=C12` [TIC10], in the assay with A172 [3], the “% Inhibiton A172” value was 68% and the “% Proliferation A172” value is 32%. In the assay on U87 [4], the “% Inhibiton U87” value was 27% and the “% Proliferation U87” value turned out to be 73%. For the same compound, in the assay with HEK293S, the “% Inhibiton HEK293” value stood at 83% and the “% Proliferation HEK293” value is 17%.
As for `C[C@H](c1nc2c(cnn2C2CCOCC2)c(=O)[nH]1)N1CC(Oc2ccccc2)C1` [PF04449613], in the assay on A172 [3], the “% Inhibiton A172” value came out at 61% and the “% Proliferation A172” value is given as 39%. For the same compound, in the assay on U87 [4], the “% Inhibiton U87” value is −14% and the “% Proliferation U87” value was 114%. Moreover, in the assay on HEK293S, the “% Inhibiton HEK293” value is 10% and the “% Proliferation HEK293” value stood at 90%.
Consider `CC(C)/N=c1\cc2n(-c3ccc(Cl)cc3)c3ccccc3nc-2cc1Nc1ccc(Cl)cc1` [Clofaximine], for which the EC50 in the assay with LN443 was 20100 nM; in the assay on U118 it was 19700 nM; in the assay on A172 [1] it was 11900 nM; with U87 [2], 8610 nM.
For the compound Dactinmycin, the EC50 is 19.6 nM with LN443, 56.8 nM with U118, 99.3 nM in the assay with A172 [1] and 437 nM in the assay with U87 [2].
Consider `Nc1ncnc2c1ncn2[C@H]1C[C@H](O)[C@@H](CO)O1` [Deoxyadenosine], for which the EC50 was 590 nM in the assay with U118, 1770 nM in the assay on A172 [1] and 2110 nM in the assay with U87 [2].
For the compound Fucoxanthin, in the assay with A172 [3], the “% Inhibiton A172” value was found to be 66% and the “% Proliferation A172” value stood at 34%. Further, in the assay on U87 [4], the “% Inhibiton U87” value was 26% and the “% Proliferation U87” value was found to be 74%. In the assay on HEK293S, the “% Inhibiton HEK293” value is 76% and the “% Proliferation HEK293” value is on record as 24%.
In the case of `CC[C@]1(O)C[C@H]2CN(CCc3c([nH]c4ccccc34)[C@@](C(=O)OC)(c3cc4c(cc3OC)N(C=O)[C@H]3[C@@](O)(C(=O)OC)[C@H](OC(C)=O)[C@]5(CC)C=CCN6CC[C@]43[C@@H]65)C2)C1` [Vincrinstine], the concentration for a half-maximal effect (EC50) in the assay on LN443 was 873 nM; in the assay on U118, 1190 nM; in the assay on A172 [1], 42 nM; in the assay with U87 [2], 1320 nM.
For the compound `COCc1c(C(C)C)nc(C(C)C)c(/C=C/[C@@H](O)C[C@@H](O)CC(=O)O)c1-c1ccc(F)cc1` [Cericastatin], the EC50 was 24 nM in the assay on LN443, 741 nM in the assay on U118, 31.7 nM in the assay on A172 [1] and 668 nM in the assay with U87 [2].
As for `COc1cccc2c1C(=O)c1c(O)c3c(c(O)c1C2=O)C[C@@](O)(C(=O)CO)C[C@@H]3O[C@H]1C[C@H](N)[C@@H](O)[C@H](C)O1` [Epirubicin], the EC50 was 41.2 nM in the assay with LN443, 46.9 nM with U118, 62.2 nM in the assay with A172 [1] and 59.3 nM in the assay with U87 [2].
Consider `O=c1cc(N2CCOCC2)oc2c(-c3ccccc3)cccc12` [LY294002], for which, in the assay on A172 [3], the “% Inhibiton A172” value is recorded as 42% and the “% Proliferation A172” value was 58%. In the assay on U87 [4], the “% Inhibiton U87” value is on record as −17% and the “% Proliferation U87” value was found to be 117%. Also, in the assay with HEK293S, the “% Inhibiton HEK293” value stood at 2% and the “% Proliferation HEK293” value stood at 98%.
Consider `COc1cc2c(cc1OC)-c1c/c(=N\c3c(C)cc(C)cc3C)n(C)c(=O)n1CC2` [Trequinsin], for which, in the assay on A172 [3], the “% Inhibiton A172” value came to 37% and the “% Proliferation A172” value is 63%. Besides, in the assay with U87 [4], the “% Inhibiton U87” value was determined as 11% and the “% Proliferation U87” value is 89%. For the same compound, in the assay on HEK293S, the “% Inhibiton HEK293” value is recorded as 59% and the “% Proliferation HEK293” value amounted to 41%.
For the compound `COc1ccc(-c2cc3c(C)nc(N)nc3n([C@H]3CC[C@H](OCCO)CC3)c2=O)cn1` [PF04691502], in the assay on A172 [3], the “% Inhibiton A172” value was found to be 44% and the “% Proliferation A172” value was determined as 56%. In the assay with U87 [4], the “% Inhibiton U87” value is listed as 35% and the “% Proliferation U87” value came to 65%. Moreover, in the assay on HEK293S, the “% Inhibiton HEK293” value is recorded as 45% and the “% Proliferation HEK293” value is given as 55%.
As to `COc1cccc2c1C(=O)c1c(O)c3c(c(O)c1C2=O)C[C@@](O)(C(=O)CO)C[C@@H]3O[C@H]1C[C@H](N)[C@H](O)[C@H](C)O1` [Docorubicine], the concentration giving a half-maximal response (EC50) in the assay with LN443 was 62.9 nM; in the assay on U118, 41.1 nM; with A172 [1], 48.8 nM; in the assay with U87 [2], 55.1 nM.
`O=C1NC(=O)/C(=C/c2ccc3nccc(-c4ccncc4)c3c2)S1` [GSK1059615]: in the assay with A172 [3], the “% Inhibiton A172” value is 74% and the “% Proliferation A172” value stood at 26%. Further, in the assay with U87 [4], the “% Inhibiton U87” value was determined as 57% and the “% Proliferation U87” value is listed as 43%. In addition, in the assay with HEK293S, the “% Inhibiton HEK293” value stood at 79% and the “% Proliferation HEK293” value was 21%.

Values taken from patent US20210208149A1, “METHODS FOR CELL PROFILING” (priority 2018, published 2021).
